Source: paper PMC11033320, “Activation of p53 signaling and regression of breast and prostate carcinoma cells by spirooxindole-benzimidazole small molecules” (Frontiers in Pharmacology, 2024)

What was measured:
BT-549 = experiment: NCI anticancer screening, Breast Cancer BT-549; format: cell-based; conditions: Homo sapiens; BT-549, 10 μM; read-out: % Growth Inhibition (GI %)
Text: (§1) The compound has been processed according to standard method NCI-60 Human Tumor Cell Lines Screen for organic compound at development therapeutic program (DTP). Requests for access to this national resource can be submitted online at: […]

MALME-3M = experiment: NCI anticancer screening, Melanoma MALME-3M; format: cell-based; conditions: Homo sapiens, read-out: % Growth Inhibition (GI %)
Text: as §1

MCF7 = experiment: NCI anticancer screening, Breast Cancer MCF7; format: cell-based; conditions: Homo sapiens; MCF7, 10 μM; read-out: % Growth Inhibition (GI %)
Text: as §1

NCI-H522 = experiment: NCI anticancer screening, Non-Small Cell Lung Cancer NCI-H522; format: cell-based; conditions: Homo sapiens; NCI-H522, 10 μM; read-out: % Growth Inhibition (GI %)
Text: as §1

RXF 393 = experiment: NCI anticancer screening, Renal Cancer RXF 393; format: cell-based; conditions: Homo sapiens; RXF 393, 10 μM; read-out: % Growth Inhibition (GI %)
Text: as §1

SK-MEL-5 = experiment: NCI anticancer screening, Melanoma SK-MEL-5; format: cell-based; conditions: Homo sapiens; SK-MEL-5, 10 μM; read-out: % Growth Inhibition (GI %)
Text: as §1

K-562 = experiment: NCI anticancer screening, Leukemia K-562; format: cell-based; conditions: Homo sapiens, K562; K-562, 10 μM; read-out: % Growth Inhibition (GI %)
Text: as §1

SK-MEL-28 = experiment: NCI anticancer screening, Melanoma SK-MEL-28; format: cell-based; conditions: Homo sapiens; SK-MEL-28, 10 μM; read-out: % Growth Inhibition (GI %)
Text: as §1

MOLT-4 = experiment: NCI anticancer screening, Leukemia MOLT-4; format: cell-based; conditions: Homo sapiens; MOLT-4, 10 μM; read-out: % Growth Inhibition (GI %)
Text: as §1

NCI-H460 = experiment: NCI anticancer screening, Non-Small Cell Lung Cancer NCI-H460; format: cell-based; conditions: Homo sapiens; NCI-H460, 10 μM; read-out: % Growth Inhibition (GI %)
Text: as §1

HS 578T = experiment: NCI anticancer screening, Breast Cancer HS 578T; format: cell-based; conditions: Homo sapiens, read-out: % Growth Inhibition (GI %)
Text: as §1

UO-31 = experiment: NCI anticancer screening, Renal Cancer UO-31; format: cell-based; conditions: Homo sapiens; UO-31, 10 μM; read-out: % Growth Inhibition (GI %)
Text: as §1

LOX IMVI = experiment: NCI anticancer screening, Melanoma LOX IMVI; format: cell-based; conditions: Homo sapiens, read-out: % Growth Inhibition (GI %)
Text: as §1

HOP-92 = experiment: NCI anticancer screening, Non-Small Cell Lung Cancer HOP-92; format: cell-based; conditions: Homo sapiens; HOP-92, 10 μM; read-out: % Growth Inhibition (GI %)
Text: as §1

DU-145 = experiment: NCI anticancer screening, DU-145; format: cell-based; conditions: Homo sapiens; DU-145, 10 μM; read-out: % Growth Inhibition (GI %)
Text: as §1

NCI-H322M = experiment: NCI anticancer screening, Non-Small Cell Lung Cancer NCI-H322M; format: cell-based; conditions: Homo sapiens, read-out: % Growth Inhibition (GI %)
Text: as §1

A549/ATCC = experiment: NCI anticancer screening, Non-Small Cell Lung Cancer A549/ATCC; format: cell-based; conditions: Homo sapiens, read-out: % Growth Inhibition (GI %)
Text: as §1

786-0 = experiment: NCI anticancer screening, Renal Cancer 786-0; format: cell-based; conditions: Homo sapiens; 786-0, 10 μM; read-out: % Growth Inhibition (GI %)
Text: as §1

UACC-257 = experiment: NCI anticancer screening, Melanoma UACC-257; format: cell-based; conditions: Homo sapiens; UACC-257, 10 μM; read-out: % Growth Inhibition (GI %)
Text: as §1

SNB-19 = experiment: NCI anticancer screening, CNS Cancer SNB-19; format: cell-based; conditions: Homo sapiens; SNB-19, 10 μM; read-out: % Growth Inhibition (GI %)
Text: as §1

MDA-MB 231 cells = conditions: for inhibition: 5 µM
SF-268 = experiment: NCI anticancer screening, CNS Cancer SF-268; format: cell-based; conditions: Homo sapiens; SF-268, 10 μM; read-out: % Growth Inhibition (GI %)
Text: as §1

HT29 = experiment: NCI anticancer screening, Colon Cancer HT29; format: cell-based; conditions: Homo sapiens, HT-29; HT29, 10 μM; read-out: % Growth Inhibition (GI %)
Text: as §1

T-47D = experiment: NCI anticancer screening, Breast Cancer T-47D; format: cell-based; conditions: Homo sapiens, T47D, read-out: % Growth Inhibition (GI %)
Text: as §1

M14 = experiment: NCI anticancer screening, Melanoma M14; format: cell-based; conditions: Homo sapiens; M14, 10 μM; read-out: % Growth Inhibition (GI %)
Text: as §1

KM12 = experiment: NCI anticancer screening, Colon Cancer KM12; format: cell-based; conditions: Homo sapiens; KM12, 10 μM; read-out: % Growth Inhibition (GI %)
Text: as §1

PC-3 cells = experiment: MTT assay anticancer activity, PC-3; format: cell-based; conditions: Homo sapiens, PC-3, 5 µM, mean ± SEM, read-out: growth inhibition percentage of PC-3
Text: MTT method was done as described above.

SW-620 = experiment: NCI anticancer screening, Colon Cancer SW-620; format: cell-based; conditions: Homo sapiens; SW-620, 10 μM; read-out: % Growth Inhibition (GI %)
Text: as §1

RPMI-8226 = experiment: NCI anticancer screening, Leukemia RPMI-8226; format: cell-based; conditions: Homo sapiens; RPMI-8226, 10 μM; read-out: % Growth Inhibition (GI %)
Text: as §1

UACC-62 = experiment: NCI anticancer screening, Melanoma UACC-62; format: cell-based; conditions: Homo sapiens; UACC-62, 10 μM; read-out: % Growth Inhibition (GI %)
Text: as §1

[1] = MTT cytotoxicity to normal human lung fibroblast Wi-38 cell line; format: cell-based; conditions: Wi-38 normal lung fibroblast cells, mean ± SEM, read-out: percentage of Wi-38 viability
Protocol: Normal human lung fibroblast Wi-38 cell line was used to detect cytotoxicity of the studied compounds (Table S8). Wi-38 cell line was cultured in DMEM medium-contained 10% fetal bovine serum (FBS), seeded as 5x10^3 cells per well in 96-well cell culture plate and incubated at 37 °C in 5% CO2 incubator. After 24 h for cell attachment, serial concentrations of the synthetic compounds were incubated with Wi-38 cells for 72 h. Cell viability was assayed by MTT method (Mosmann, 1983). Twenty microliters of 5 mg/ml MTT (Sigma, USA) was added to each well and the plate was incubated at 37 °C for 3 h. Then MTT solution was removed, 100 µl DMSO was added and the absorbance of each well was measured with a microplate reader (BMG LabTech, Germany) at 570 nm.

OVCAR-4 = experiment: NCI anticancer screening, Ovarian Cancer OVCAR-4; format: cell-based; conditions: Homo sapiens; OVCAR-4, 10 μM; read-out: % Growth Inhibition (GI %)
Text: as §1

Compound | inhibition at 10 µM (BT-549) [%] | inhibition at 10 µM (MALME-3M) [%] | inhibition at 10 µM (MCF7) [%] | inhibition at 10 µM (NCI-H522) [%] | inhibition at 10 µM (RXF 393) [%] | inhibition at 10 µM (SK-MEL-5) [%] | inhibition at 10 µM (K-562) [%] | inhibition at 10 µM (SK-MEL-28) [%] | inhibition at 10 µM (MOLT-4) [%] | inhibition at 10 µM (NCI-H460) [%] | inhibition at 10 µM (HS 578T) [%] | inhibition at 10 µM (UO-31) [%] | inhibition at 10 µM (LOX IMVI) [%] | inhibition at 10 µM (HOP-92) [%] | inhibition at 10 µM (DU-145) [%] | inhibition at 10 µM (NCI-H322M) [%] | inhibition at 10 µM (A549/ATCC) [%] | inhibition at 10 µM (786-0) [%] | inhibition at 10 µM (UACC-257) [%] | inhibition at 10 µM (SNB-19) [%] | other results
O=C(c1nc2ccccc2[nH]1)[C@H]1[C@H](c2ccccc2)C2CSCN2[C@]12C(=O)Nc1ccccc12 (mixture of isomers) [Compound 6a, (3S,6′R)-6'-(1H-benzo [d]imidazole-2-carbonyl)-7′-phenyl-3′,6′,7′,7a′-tetrahydro-1′H-spiro [indoline-3.5′-pyrrolo [1,2-c]thiazol]-2-one] | 102 | 101 | 98.1 | 93.7 | 101 | 92.7 | 105 | 103 | 100 | 106 | 103 | 77.2 | 98.7 | 95.5 | 115 | 98.1 | 98.7 | 102 | 97.3 | 97 | IC50 (MDA-MB 231 cells): 2.97 ± 0.047 µM; inhibition (MDA-MB 231 cells): 55.5 ± 0.761%; inhibition at 10 µM (SF-268): 98.1%; inhibition at 10 µM (HT29): 98.8%; inhibition at 10 µM (T-47D): 88%; inhibition at 10 µM (M14): 107%; inhibition at 10 µM (KM12): 105%; inhibition at 5 µM (PC-3 cells): > 50%; inhibition at 10 µM (SW-620): 97.8%; inhibition at 10 µM (RPMI-8226): 111%; inhibition at 10 µM (UACC-62): 95.7%; viability at 72 h, 5 µM [1]: > 81%; inhibition at 10 µM (OVCAR-4): 108%
Cc1ccc([C@@H]2C3CSCN3[C@]3(C(=O)Nc4ccccc43)[C@H]2C(=O)c2nc3ccccc3[nH]2)cc1 (mixture of isomers) [Compound 6d, (3S,6′R)-6'-(1H-Benzo [d]imidazole-2-carbonyl)-7'-(p-tolyl)-3′,6′,7′,7a′-tetrahydro-1′H-spiro [indoline-3.5′-pyrrolo [1,2-c]thiazol]-2-one] | 96.2 | 85.3 | 70.4 | 84.3 | 57.1 | 83.3 | 81.6 | 98.8 | 78.5 | 84.5 | 78.6 | 54.3 | 82 | 87 | 106 | 83.1 | 75.4 | 86.1 | 80.6 | 80.3 | IC50 (MDA-MB 231 cells): 4.3 ± 0.137 µM; inhibition (MDA-MB 231 cells): 51.7 ± 1.3%; inhibition at 10 µM (SF-268): 64%; inhibition at 10 µM (HT29): 69.2%; inhibition at 10 µM (T-47D): 68.8%; inhibition at 10 µM (M14): 74.7%; inhibition at 10 µM (KM12): 75.4%; inhibition at 5 µM (PC-3 cells): > 50%; inhibition at 10 µM (SW-620): 92%; inhibition at 10 µM (RPMI-8226): 80.3%; inhibition at 10 µM (UACC-62): 78%; viability at 72 h, 5 µM [1]: > 81%; inhibition at 10 µM (OVCAR-4): 62.4%
O=C(c1nc2ccccc2[nH]1)[C@H]1[C@H](c2ccc(Cl)cc2)C2CSCN2[C@]12C(=O)Nc1ccccc12 (stereo partly drawn) [Compound 6b, (3S,6′R)-6'-(1H-Benzo [d]imidazole-2-carbonyl)-7'-(4-chlorophenyl)-3′,6′,7′,7a′-tetrahydro-1′H-spiro [indoline-3.5′-pyrrolo [1,2-c]thiazol]-2-one] | 97 | 89.7 | 74.7 | 87.9 | 71.1 | 91.6 | 82.3 | 92.2 | 68.9 | 74.3 | 72.1 | 49 | 76.6 | 100 | 97.4 | 93.5 | 81.4 | 97.6 | 95.2 | 77.7 | IC50 (MDA-MB 231 cells): 4.76 ± 0.265 µM; inhibition (MDA-MB 231 cells): 52.7 ± 2.94%; inhibition at 10 µM (SF-268): 77.5%; inhibition at 10 µM (HT29): 80.9%; inhibition at 10 µM (T-47D): 59.9%; melting point: 210 to 212 °C; inhibition at 10 µM (M14): 79.4%; inhibition at 10 µM (KM12): 66.5%; inhibition at 5 µM (PC-3 cells): 51.9%; inhibition at 10 µM (SW-620): 77%; inhibition at 10 µM (RPMI-8226): 63.2%; inhibition at 10 µM (UACC-62): 73.9%; viability at 72 h, 5 µM [1]: 49.6 ± 1.19%; inhibition at 10 µM (OVCAR-4): 69.5%
CN(C)c1ccc([C@@H]2C3CSCN3[C@]3(C(=O)Nc4ccccc43)[C@H]2C(=O)c2nc3ccccc3[nH]2)cc1 (stereo partly drawn) [Compound 6k, (3S,6′R)-6'-(1H-Benzo [d]imidazole-2-carbonyl)-7'-(4-(dimethylamino)phenyl)-3′,6′,7′,7a′-tetrahydro-1′H-spiro [indoline-3.5′-pyrrolo [1,2-c]thiazol]-2-one] | 108 | 94.7 | 93.6 | 87.9 | 99.7 | 98.2 | 92.2 | 96.1 | 85.6 | 102 | 91.7 | 73.4 | 94.2 | 104 | 104 | 99.8 | 94.2 | 103 | 90.2 | 91.7 | IC50 (MDA-MB 231 cells): 4 ± 0.249 µM; inhibition (MDA-MB 231 cells): 37.6 ± 2.61%; inhibition at 10 µM (SF-268): 92.1%; inhibition at 10 µM (HT29): 99.3%; inhibition at 10 µM (T-47D): 83%; melting point: 178 to 180 °C; inhibition at 10 µM (M14): 103%; inhibition at 10 µM (KM12): 95.7%; inhibition at 5 µM (PC-3 cells): 41.6 ± 0.729%; inhibition at 10 µM (SW-620): 100%; inhibition at 10 µM (UACC-62): 84.4%; viability at 72 h, 5 µM [1]: 38.6 ± 3.02%; inhibition at 10 µM (OVCAR-4): 91.5%
